Source: ChEMBL document CHEMBL1132806, “Anti-HIV activity of a series of cosalane amino acid conjugates” (Bioorg Med Chem Lett, 2000)

Experiments:
[1] = Cytotoxicity of compound was tested as concentration required for 50% reduction in cellular viability in CEM-SS cells; format: cell-based; details: human
[2] = tested on: CEM-SS; experiment: Tested for inhibition of cytopathic effect of HIV-1RF in CEM-SS cells; format: functional, cell-based; details: Homo sapiens
[3] = tested on: MT4; experiment: Tested for inhibition of cytopathic effect of HIV-1 IIIB in MT-4 cells; format: functional, cell-based; details: Homo sapiens
[4] = tested on: MT4; experiment: Tested for inhibition of cytopathic effect of HIV-2ROD in MT-4 cells; format: functional, cell-based; details: Homo sapiens
[5] = Cytotoxicity of compound was tested as concentration required for 50% reduction in cellular viability in MT-4 cells; format: cell-based, MT4; details: human

SMILES | CC50 [1] | EC50 [2] | EC50 [3] | EC50 [4] | CC50 [5]
CC(C)CCCC(C)[C@H]1CC[C@H]2[C@@H]3CCC4C[C@@H](CCC=C(c5cc(Cl)c(O)c(C(=O)NCC(=O)O)c5)c5cc(Cl)c(O)c(C(=O)NCC(=O)O)c5)CC[C@]4(C)[C@H]3CC[C@]12C (stereo partly specified) | > 200 µM | 3.44 µM | 50.8 µM | > 125 µM | > 125 µM
CC(C)CCCC(C)[C@H]1CC[C@H]2[C@@H]3CCC4C[C@@H](CCC=C(c5cc(Cl)c(O)c(C(=O)NCC(=O)OC(C)(C)C)c5)c5cc(Cl)c(O)c(C(=O)NCC(=O)OC(C)(C)C)c5)CC[C@]4(C)[C@H]3CC[C@]12C (stereo partly specified) | > 125 µM | – | > 125 µM | > 125 µM | > 125 µM
CC(C)CCCC(C)[C@H]1CC[C@H]2[C@@H]3CCC4C[C@@H](CCC=C(c5cc(Cl)c(O)c(C(=O)NCCC(=O)O)c5)c5cc(Cl)c(O)c(C(=O)NCCC(=O)O)c5)CC[C@]4(C)[C@H]3CC[C@]12C (stereo partly specified) | > 200 µM | 34.7 µM | 75.3 µM | 120 µM | > 125 µM
CC(C)CCCC(C)[C@H]1CC[C@H]2[C@@H]3CCC4C[C@@H](CCCC(c5cc(Cl)c(O)c(C(=O)NCC(=O)O)c5)c5cc(Cl)c(O)c(C(=O)NCC(=O)O)c5)CC[C@]4(C)[C@H]3CC[C@]12C (stereo partly specified) | > 200 µM | 4.5 µM | 34.8 µM | > 125 µM | > 125 µM
CC(C)CCCC(C)[C@H]1CC[C@H]2[C@@H]3CCC4C[C@@H](CCC=C(c5cc(Cl)c(O)c(C(=O)N[C@@H](CC(C)C)C(=O)O)c5)c5cc(Cl)c(O)c(C(=O)N[C@@H](CC(C)C)C(=O)O)c5)CC[C@]4(C)[C@H]3CC[C@]12C (stereo partly specified) | > 200 µM | 40 µM | 63 µM | > 125 µM | > 125 µM
CC(C)CCCC(C)[C@H]1CC[C@H]2[C@@H]3CCC4C[C@@H](CCC=C(c5cc(Cl)c(O)c(C(=O)N[C@@H](CC(=O)O)C(=O)O)c5)c5cc(Cl)c(O)c(C(=O)N[C@@H](CC(=O)O)C(=O)O)c5)CC[C@]4(C)[C@H]3CC[C@]12C (stereo partly specified) | 90 µM | 10.7 µM | 16.6 µM | 122 µM | > 125 µM
CC(C)CCCC(C)[C@H]1CC[C@H]2[C@@H]3CCC4C[C@@H](CCC=C(c5cc(Cl)c(O)c(C(=O)N[C@@H](Cc6ccccc6)C(=O)O)c5)c5cc(Cl)c(O)c(C(=O)N[C@@H](Cc6ccccc6)C(=O)O)c5)CC[C@]4(C)[C@H]3CC[C@]12C (stereo partly specified) | > 200 µM | > 200 µM | > 62 µM | > 62 µM | 62 µM
CC(C)CCCC(C)[C@H]1CC[C@H]2[C@@H]3CCC4C[C@@H](CCC=C(c5cc(Cl)c(O)c(C(=O)O)c5)c5cc(Cl)c(O)c(C(=O)O)c5)CC[C@]4(C)[C@H]3CC[C@]12C (stereo partly specified) | > 200 µM | – | – | – | > 200 µM
CC(C)CCCC(C)[C@H]1CC[C@H]2[C@@H]3CCC4C[C@@H](CCCC(c5cc(Cl)c(O)c(C(=O)N[C@@H](CCC(=O)O)C(=O)O)c5)c5cc(Cl)c(O)c(C(=O)N[C@@H](CCC(=O)O)C(=O)O)c5)CC[C@]4(C)[C@H]3CC[C@]12C (stereo partly specified) | 34 µM | 11.6 µM | 10.6 µM | 75.2 µM | > 125 µM
CC(C)CCCC(C)[C@H]1CC[C@H]2[C@@H]3CCC4C[C@@H](CCC=C(c5cc(Cl)c(O)c(C(=O)N[C@@H](CCC(=O)O)C(=O)O)c5)c5cc(Cl)c(O)c(C(=O)N[C@@H](CCC(=O)O)C(=O)O)c5)CC[C@]4(C)[C@H]3CC[C@]12C (stereo partly specified) | 82 µM | 1.1 µM | 9.2 µM | 71.6 µM | > 125 µM
